Experimental data: patent publication US10584098B2, “Quinolone-3-diarylethers” (OREGON HEALTH & SCIENCE UNIVERSITY, priority 2015, dated 2020)
Like-named read-outs stand apart in the source and are kept apart here. Blank lines part the entries; values can stand above or below the compound they belong to.

Experiments:
P. falciparum strain D6 = assay: SYBR green antiplasmodial assay, strain D6; format: cell-based, Plasmodium falciparum
[1] = human, microsomes
[2] = system: P. yoelii (Kenya strain, MR4 MRA-428); assay: Single dose cure (SDC) of patent blood stage murine malaria infection; format: in vivo, Plasmodium yoelii; conditions: mice; for lowest fully protective single-dose cure (SDC): single oral dose in PEG-400, parasite free 30 days; for minimal effective dose: Plasmodium yoelii, po, 720 h, single dose, read-out: Lowest fully effective single dose cure P. yoelii
Protocol: As described above, mice (female, CF1, Charles River Labs) were infected intravenously with 10^5 P. yoelii (Kenya strain, MR4 MRA-428/Murine LDH Elevating Virus-Free) parasitized erythrocytes from a donor animal. Drug administration commenced the day after the animals were inoculated (Day 1). The test compounds were dissolved in PEG-400 and administered by oral gavage once. On the 5th day blood films were prepared and the extent of parasitemia was determined by microscopic examination of Giemsa stained smears. Animals remaining parasite free 30 days after the last drug dose were considered cured of their infection.

[3] = system: P. falciparum strain Tm90-C2B; assay: SYBR green antiplasmodial assay, strain Tm90-C2B; format: cell-based, Plasmodium falciparum; conditions: read-out: IC50, nM, P. falciparum strain Tm90-C2B
P. falciparum strain Dd2 = assay: SYBR green antiplasmodial assay, strain Dd2; format: cell-based, Plasmodium falciparum; conditions: read-out: IC50, nM, P. falciparum strain Dd2
[4] = In vivo efficacy of earlier prodrug versus parent compound; conditions: compared to the parent compound ELQ-300
[5] = Stability of prodrug to metabolism
[6] = biological target: Plasmodium falciparum cytochrome bc1 complex (Plasmodium falciparum, UniProt Q02768); assay: Inhibition of cytochrome bc1 complex; format: biochemical
P. falciparum = assay: In vitro intrinsic antiplasmodial activity against all test strains; format: cell-based, Plasmodium falciparum
[7] = Oral bioavailability in rats; format: in vivo; conditions: relative to ELQ-300
P. yoelii = assay: 4-day suppression test in P. yoelii infected mice; format: in vivo, Plasmodium yoelii; conditions: dosing on 4 sequential days, smears on Day 5
[8] = Oral bioavailability in mice; format: in vivo; conditions: relative to ELQ-300
[9] = Chemical stability in solvent / acidic conditions; format: physicochemical
Protocol: Ethyl chloroformate is then added dropwise. The reaction goes to completion in minutes upon the addition of the chloroformate forming one regioisomer in very high yield. […] Results are summarized in Scheme 1

[10] = 72 h, chloroquine sensitive strain; Table 1 of Example 4; read-out: IC50, nM, P. falciparum strain D6
[11] = 72 h, resistant to chloroquine and atovaquone
[12] = Plasmodium falciparum, D6, 72 h; read-out: IC50, nM, P. falciparum strain D6
[13] = Plasmodium falciparum, TM90, 72 h, resistant to chloroquine and atovaquone
[14] = Plasmodium falciparum, DD2, 72 h, multidrug resistant strain
[15] = Plasmodium falciparum, D6; read-out: P. falciparum strain D6, IC50
[16] = 72 h, multidrug resistant strain
[17] = single oral doses in the range of 1 to 20 mg/kg

SMILES: CCOC(=O)OCOc1c(-c2ccc(Oc3ccc(OC(F)(F)F)cc3)cc2)c(C)nc2cc(OC)c(Cl)cc12 [ELQ-331]
IC50 (P. falciparum strain D6; [10]): 6 nM | t1/2 [1]: 37.7 min | lowest fully protective single-dose cure (SDC) [2]: 2.5 mg/kg | IC50 [3, 11]: 4 nM

SMILES: O=C1C(O)=C([C@H]2CC[C@H](c3ccc(Cl)cc3)CC2)C(=O)c2ccccc21 [Atovaquone, reference compound]
IC50 (P. falciparum strain D6; [12]): 0.2 nM | IC50 [3, 13]: > 250 nM | IC50 (P. falciparum strain Dd2; [14]): 0.2 nM

SMILES: COc1cc2nc(C)c(-c3ccc(Oc4ccc(OC(F)(F)F)cc4)cc3)c(OC(=O)C(C)(C)C)c2cc1Cl [ELQ-357, 6-chloro-7-methoxy-2-methyl-3-(4-(4-(trifluoromethoxy)phenoxy)phenyl)quinolin-4-yl pivalate]
IC50 (P. falciparum strain D6; [15]): 3.5 nM | minimal effective dose [2]: 4 mg/kg

SMILES: COc1cc2nc(C)c(-c3ccc(Oc4ccc(OC(F)(F)F)cc4)cc3)c(OC(=O)OC(C)(C)C)c2cc1Cl [ELQ-358, tert-butyl (6-chloro-7-methoxy-2-methyl-3-(4-(4-(trifluoromethoxy)phenoxy)phenyl)quinolin-4-yl) carbonate]
IC50 (P. falciparum strain D6; [15]): 6 nM | minimal effective dose [2]: > 4 mg/kg

SMILES: CCN(CC)CCCC(C)Nc1ccnc2cc(Cl)ccc12 (centres unmarked) [Chloroquine, reference compound]
IC50 (P. falciparum strain D6; Plasmodium falciparum, D6, 72 h, read-out: IC50, nM, P. falciparum strain D6): 10 nM | IC50 ([3]; Plasmodium falciparum, TM90, 72 h): 98 nM | IC50 (P. falciparum strain Dd2; Plasmodium falciparum, DD2, 72 h): 137 nM

SMILES: COc1cc2nc(C)c(-c3ccc(Oc4ccc(OC(F)(F)F)cc4)cc3)c(OC(=O)N(C)C)c2cc1Cl [ELQ-301]
in vivo efficacy compared to ELQ-300 [4]: inferior in vivo efficacy | stability to metabolism [5]: stable to metabolism

SMILES: COc1cc2nc(C)c(-c3ccc(Oc4ccc(OC(F)(F)F)cc4)cc3)c(OCOC(=O)OC(C)C)c2cc1Cl [ELQ-330]
IC50 (P. falciparum strain D6; [10]): 62 nM | lowest fully protective single-dose cure (SDC) [2]: 5 mg/kg | IC50 [3, 11]: 47 nM | IC50 (P. falciparum strain Dd2; [16]): 38 nM

SMILES: COc1cc2[nH]c(C)c(-c3ccc(Oc4ccc(OC(F)(F)F)cc4)cc3)c(=O)c2cc1Cl [ELQ-300, reference compound]
IC50 (P. falciparum strain D6; [12]): 6 nM | IC50 (P. falciparum strain D6; [15]): 3.1 nM | minimal effective dose [2]: > 20 mg/kg | parasitemia suppression [2, 17]: suppressed parasitemia completely | recrudescence [2, 17]: recrudescence occurred within two weeks of dosing | IC50 [3, 13]: 2 nM | IC50 (P. falciparum strain Dd2; [14]): 6 nM | inhibition of cytochrome bc1 complex [6]: sub-nanomolar

SMILES: COC(=O)Oc1c(-c2ccc(Oc3ccc(OC(F)(F)F)cc3)cc2)c(C)nc2cc(OC)c(Cl)cc12 [ELQ-336, 6-chloro-7-methoxy-2-methyl-3-(4-(4-(trifluoromethoxy)phenoxy)phenyl)quinolin-4-yl methyl carbonate]
IC50 (P. falciparum strain D6; [15]): 2.5 nM | minimal effective dose [2]: 4 mg/kg

SMILES: COCCOC(=O)Oc1c(-c2ccc(Oc3ccc(OC(F)(F)F)cc3)cc2)c(C)nc2cc(OC)c(Cl)cc12 [ELQ-354, 6-chloro-7-methoxy-2-methyl-3-(4-(4-(trifluoromethoxy)phenoxy)phenyl)quinolin-4-yl(2-methoxyethyl) carbonate]
IC50 (P. falciparum strain D6; [15]): 3 nM | minimal effective dose [2]: 3 mg/kg

SMILES: CCOC(=O)Oc1c(-c2ccc(Oc3ccc(OC(F)(F)F)cc3)cc2)c(C)nc2cc(OC)c(Cl)cc12 [ELQ-337, 6-chloro-7-methoxy-2-methyl-3-(4-(4-(trifluoromethoxy)phenoxy)phenyl)quinolin-4-yl ethyl carbonate]
IC50 (P. falciparum strain D6; [15]): 2.5 nM | IC50 values against all test strains (P. falciparum): low to sub-nanomolar range | oral bioavailability [7]: enhanced over ELQ-300 | ED50 (P. yoelii): 0.02 mg/kg/day | ED90 (P. yoelii): 0.05 mg/kg/day | ED99 (P. yoelii): 0.075 mg/kg/day | oral bioavailability [8]: enhanced over ELQ-300 | minimal effective dose [2]: 3 mg/kg | animals in which single dose failed ([2]; 1 mg/kg, on Day 12): 4/4 | single dose cures (SDC), animals cured ([2]; doses as low as 3 mg/kg): 4/4 | chemical stability ([9]; 50/50 mixtures of methanol and water at pH 3 and 8 overnight): chemically stable

SMILES: COc1cc2nc(C)c(-c3ccc(Oc4ccc(OC(F)(F)F)cc4)cc3)c(OC(=O)OC3CCS(=O)(=O)C3)c2cc1Cl (centres unmarked) [ELQ-355, 6-chloro-7-methoxy-2-methyl-3-(4-(4-(trifluoromethoxy)phenoxy)phenyl)quinolin-4-yl (1,1-dioxidotetrahydrothiophen-3-yl) carbonate]
IC50 (P. falciparum strain D6; [15]): 3.9 nM | minimal effective dose [2]: 4 mg/kg

Now from value to compound, other results behind:

IC50 (P. falciparum strain D6; [15]): 2.5 nM
SMILES: COc1cc2nc(C)c(-c3ccc(Oc4ccc(OC(F)(F)F)cc4)cc3)c(OC(=O)c3ccccc3)c2cc1Cl [ELQ-379, 6-chloro-7-methoxy-2-methyl-3-(4-(4-(trifluoromethoxy)phenoxy)phenyl)quinolin-4-yl benzoate]

IC50 (P. falciparum strain D6; [15]): 3.1 nM
SMILES: COc1cc2nc(C)c(-c3ccc(Oc4ccc(OC(F)(F)F)cc4)cc3)c(OC(=O)OCC3COC(=O)O3)c2cc1Cl (centres unmarked) [ELQ-373, 6-chloro-7-methoxy-2 methyl-3-(4-(4-(trifluoromethoxy)phenoxy)phenyl)quinolin-4-yl ((2-oxo-1,3-dioxolan-4-yl)methyl) carbonate]
minimal effective dose [2]: 4 mg/kg

IC50 (P. falciparum strain D6; [15]): 2.7 nM
SMILES: COc1cc2nc(C)c(-c3ccc(Oc4ccc(OC(F)(F)F)cc4)cc3)c(OC(=O)OCC3COC(C)(C)O3)c2cc1Cl (centres unmarked) [ELQ-374, 6-chloro-7-methoxy-2-methyl-3-(4-(4-(trifluoromethoxy)phenoxy)phenyl)quinolin-4-yl ((2,2-dimethyl-1,3-dioxolan-4-yl)methyl) carbonate]
minimal effective dose [2]: 4 mg/kg

IC50 (P. falciparum strain D6; [10]): 326 nM | IC50 [3, 11]: 231 nM | IC50 (P. falciparum strain Dd2; [16]): 141 nM
SMILES: CCOC(=O)OC(C)Oc1c(-c2ccc(Oc3ccc(OC(F)(F)F)cc3)cc2)c(C)nc2cc(OC)c(Cl)cc12 (centres unmarked) [ELQ-387]

IC50 (P. falciparum strain D6; [15]): 8.2 nM
SMILES: COc1cc2nc(C)c(-c3ccc(Oc4ccc(OC(F)(F)F)cc4)cc3)c(OC(=O)C(C)C)c2cc1Cl [ELQ-375, 6-chloro-7-methoxy-2-methyl-3-(4-(4-(trifluoromethoxy)phenoxy)phenyl)quinolin-4-yl isobutyrate]
minimal effective dose [2]: 4 mg/kg

stability in methanol [9]: decomposes rapidly in methanol
SMILES: COc1cc2nc(C)c(-c3ccc(Oc4ccc(OC(F)(F)F)cc4)cc3)c(OC(C)=O)c2cc1Cl [ELQ-370]
chemical stability to acid [9]: chemically unstable to mildly acidic conditions

IC50 (P. falciparum strain D6; [15]): 2.5 nM
SMILES: C=CCOC(=O)Oc1c(-c2ccc(Oc3ccc(OC(F)(F)F)cc3)cc2)c(C)nc2cc(OC)c(Cl)cc12 [ELQ-359, allyl (6-chloro-7-methoxy-2-methyl-3-(4-(4-(trifluoromethoxy)phenoxy)phenyl)quinolin-4-yl) carbonate]
minimal effective dose [2]: 4 mg/kg
